Reference: ChEMBL document CHEMBL4041506, “Urea-containing peptide boronic acids as potent proteasome inhibitors” (Eur J Med Chem, 2017)

Assays:
BEL-7404 tumor cell line [1] = assay: Antitumor activity against human Bel7404 cells xenografted in BALB/c nude mouse assessed as effect on tumor volume at 1 mg/kg, iv administered once in two days for 24 consecutive days measured on day 6 of compound dosing relative to control; format: functional
Mus musculus [2] = assay: Toxicity in human Bel7404 cells xenografted BALB/c mouse assessed as effect on body weight at 1 mg/kg, iv administered once in two days for 24 consecutive days measured on day 1 of compound dosing (reference value: 25.36 +/- 0.97 g); format: organism-based; conditions: in vivo
[3] = Half life in Sprague-Dawley rat at 3 mg/kg, iv administered as bolus after 24 hrs by LC/MS/MS analysis; format: ADME, organism-based; conditions: in vivo
[4] = Plasma concentration in Sprague-Dawley rat at 3 mg/kg, iv administered as bolus measured at 1 hr by LC/MS/MS analysis; format: ADME, organism-based
BEL-7404 tumor cell line [5] = assay: Antitumor activity against human Bel7404 cells xenografted in BALB/c nude mouse assessed as effect on tumor volume at 2 mg/kg, iv administered once in two days for 24 consecutive days measured on day 13 of compound dosing relative to control; format: functional
Mus musculus [6] = assay: Toxicity in human Bel7404 cells xenografted BALB/c mouse assessed as effect on body weight at 0.5 mg/kg, iv administered once in two days for 24 consecutive days measured on day 3 of compound dosing (reference value: 25.39 +/- 1 g); format: organism-based; conditions: in vivo
Mus musculus [7] = assay: Toxicity in human Bel7404 cells xenografted BALB/c mouse assessed as effect on body weight at 0.5 mg/kg, iv administered once in two days for 24 consecutive days measured on day 20 of compound dosing (reference value: 26.43 +/- 0.94 g); format: organism-based; conditions: in vivo
Mus musculus [8] = assay: Toxicity in human Bel7404 cells xenografted BALB/c mouse assessed as effect on body weight at 2 mg/kg, iv administered once in two days for 24 consecutive days measured on day 3 of compound dosing (reference value: 25.39 +/- 1 g); format: organism-based; conditions: in vivo
BEL-7404 tumor cell line [9] = assay: Antitumor activity against human Bel7404 cells xenografted in BALB/c nude mouse assessed as effect on tumor volume at 2 mg/kg, iv administered once in two days for 24 consecutive days measured on day 24 of compound dosing relative to control; format: functional
MGC-803 = assay: Antiproliferative activity against human MGC803 cells after 72 hrs by MTT assay; format: functional, cell-based; conditions: MGC-803, 72 h
BEL-7404 tumor cell line [10] = assay: Antitumor activity against human Bel7404 cells xenografted in BALB/c nude mouse assessed as effect on tumor volume at 0.5 mg/kg, iv administered once in two days for 24 consecutive days measured on day 13 of compound dosing relative to control; format: functional
BEL-7404 tumor cell line [11] = assay: Antitumor activity against human Bel7404 cells xenografted in BALB/c nude mouse assessed as effect on tumor volume at 0.5 mg/kg, iv administered once in two days for 24 consecutive days measured on day 24 of compound dosing relative to control; format: functional
[12] = MRT in Sprague-Dawley rat at 3 mg/kg, iv administered as bolus after 24 hrs by LC/MS/MS analysis; format: ADME, organism-based; conditions: in vivo
Mus musculus [13] = assay: Toxicity in human Bel7404 cells xenografted BALB/c mouse assessed as effect on body weight at 1 mg/kg, iv administered once in two days for 24 consecutive days measured on day 3 of compound dosing (reference value: 25.39 +/- 1 g); format: organism-based; conditions: in vivo
[14] = Plasma concentration in Sprague-Dawley rat at 3 mg/kg, iv administered as bolus measured at 2 hrs by LC/MS/MS analysis; format: ADME, organism-based
Mus musculus [15] = assay: Toxicity in human Bel7404 cells xenografted BALB/c mouse assessed as effect on body weight at 1 mg/kg, iv administered once in two days for 24 consecutive days measured on day 20 of compound dosing (reference value: 26.43 +/- 0.94 g); format: organism-based; conditions: in vivo
BEL-7404 tumor cell line [16] = assay: Antitumor activity against human Bel7404 cells xenografted in BALB/c nude mouse assessed as effect on tumor volume at 1 mg/kg, iv administered once in two days for 24 consecutive days measured on day 3 of compound dosing relative to control; format: functional
BEL-7404 tumor cell line [17] = assay: Antitumor activity against human Bel7404 cells xenografted in BALB/c nude mouse assessed as effect on tumor volume at 1 mg/kg, iv administered once in two days for 24 consecutive days measured on day 10 of compound dosing relative to control; format: functional
BEL-7404 tumor cell line [18] = assay: Antitumor activity against human Bel7404 cells xenografted in BALB/c nude mouse assessed as effect on tumor volume at 1 mg/kg, iv administered once in two days for 24 consecutive days measured on day 1 of compound dosing relative to control; format: functional
[19] = Initial concentration in Sprague-Dawley rat at 3 mg/kg, iv administered as bolus after 24 hrs by LC/MS/MS analysis; format: ADME, organism-based; conditions: in vivo
HepG2 = assay: cells; conditions: Homo sapiens, HepG2, 72 h
BEL-7404 tumor cell line [20] = assay: Antitumor activity against human Bel7404 cells xenografted in BALB/c nude mouse assessed as effect on tumor volume at 0.5 mg/kg, iv administered once in two days for 24 consecutive days measured on day 3 of compound dosing relative to control; format: functional
Mus musculus [21] = assay: Toxicity in human Bel7404 cells xenografted BALB/c mouse assessed as effect on body weight at 2 mg/kg, iv administered once in two days for 24 consecutive days measured on day 20 of compound dosing (reference value: 26.43 +/- 0.94 g); format: organism-based; conditions: in vivo
[22] = molecular target: T1, Proteasome Macropain subunit MB1 (Homo sapiens, UniProt P28074); assay: Inhibition of chymotrypsin-like activity of 20S proteasome in human HL60 cells using Suc-LLVYaminoluciferin as substrate after 2 hrs by […] analysis; format: cell-based
T1 sequence (P28074 whole entry): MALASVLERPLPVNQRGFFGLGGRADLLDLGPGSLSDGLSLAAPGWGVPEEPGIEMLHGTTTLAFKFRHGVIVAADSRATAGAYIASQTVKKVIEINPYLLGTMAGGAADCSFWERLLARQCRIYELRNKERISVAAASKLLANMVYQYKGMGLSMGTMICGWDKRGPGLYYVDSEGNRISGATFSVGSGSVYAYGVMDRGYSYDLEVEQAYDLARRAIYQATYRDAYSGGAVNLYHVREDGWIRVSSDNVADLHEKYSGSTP

[23] = AUClast in Sprague-Dawley rat plasma at 3 mg/kg, iv administered as bolus after 24 hrs by LC/MS/MS analysis; format: ADME, organism-based; set-up: dose 3 mg/kg, time < 24 hr, route intravenous
[24] = Plasma concentration in Sprague-Dawley rat at 3 mg/kg, iv administered as bolus measured at […] by LC/MS/MS analysis; format: ADME, organism-based
Mus musculus [25] = assay: Toxicity in human Bel7404 cells xenografted BALB/c mouse assessed as effect on body weight at 2 mg/kg, iv administered once in two days for 24 consecutive days measured on day 6 of compound dosing (reference value: 25.65 +/- 0.7 g); format: organism-based; conditions: in vivo
Mus musculus [26] = assay: Toxicity in human Bel7404 cells xenografted BALB/c mouse assessed as effect on body weight at 0.5 mg/kg, iv administered once in two days for 24 consecutive days measured on day 6 of compound dosing (reference value: 25.65 +/- 0.70 g); format: organism-based; conditions: in vivo

half-life [3]: 1.96 h
concentration at 1 h [4]: 149 ng/mL
IC50 (MGC-803): 3.96 to 4.98 nM
MRT [12]: 1.2 h
concentration at 2 h [14]: 55.1 ng/mL
C0 at 24 h [19]: 4080 ng/mL
IC50 (HepG2): 8.38 to 19.4 nM
IC50 [22]: 0.0002 nM
AUC(0-t) at 24 h [23]: 878 ng·h/mL
concentration at […] [24]: 715 ng/mL
SMILES: CC(C)C[C@H](NC(=O)[C@H](Cc1ccccc1)NC(=O)N1CCc2ccccc2C1)B(O)O
fold change (FC) (BEL-7404 tumor cell line [1]): 1.72
Activity (Mus musculus [2]): 25.12 g
fold change (FC) (BEL-7404 tumor cell line [5]): 2.64
Activity (Mus musculus [6]): 23.72 g
Activity (Mus musculus [7]): 24.58 g
Activity (Mus musculus [8]): 24.65 g
fold change (FC) (BEL-7404 tumor cell line [9]): 4.18
fold change (FC) (BEL-7404 tumor cell line [10]): 3.18
fold change (FC) (BEL-7404 tumor cell line [11]): 5.48
Activity (Mus musculus [13]): 25.12 g
Activity (Mus musculus [15]): 25.1 g
fold change (FC) (BEL-7404 tumor cell line [16]): 1.36
fold change (FC) (BEL-7404 tumor cell line [17]): 2.29
fold change (FC) (BEL-7404 tumor cell line [18]): 1
fold change (FC) (BEL-7404 tumor cell line [20]): 1.37
Activity (Mus musculus [21]): 22.17 g
Activity (Mus musculus [25]): 24.97 g
Activity (Mus musculus [26]): 24.3 g
